The test system of data set [1] is Staphylococcus aureus. As to the kind of experiment: Antimicrobial activity against Staphylococcus aureus infected in orally dosed mouse bacteremia survival model. The note with it: po. The format is functional.
For data set [2], the system named is Staphylococcus aureus. As to the kind of experiment: Antimicrobial activity against Staphylococcus aureus infected in iv dosed mouse bacteremia survival model. The format is functional.
Data set [3] deals with Staphylococcus aureus. As to the kind of experiment: Resistance index, ratio of MIC for quinolone-resistant Staphylococcus aureus MS5935 to MIC for quinolone-[…]. The format is functional.
The subject of data set [4] is Staphylococcus aureus. The data set can be described thus: Antimicrobial activity against quinolone-sensitive Staphylococcus aureus MS5935.
The subject of data set [5] is Staphylococcus aureus. As to the kind of experiment: Antimicrobial activity against quinolone-resistant Staphylococcus aureus MS5935. The format is functional.
Data set [6] has as its system Escherichia coli. The data set can be described thus: Antimicrobial activity against Escherichia coli ATCC 25922 by micro broth dilution or agar based method. The format is functional. A general note: Broth dilution looks for growth in wells or tubes with falling amounts of substance.
Data set [7] has as its system Enterococcus faecium. The data set can be described thus: Antimicrobial activity against vancomycin-resistant Enterococcus faecium VanA by micro broth dilution or agar based method. The format is functional.
Data set [8] concerns Pseudomonas aeruginosa. As to the kind of experiment: Antimicrobial activity against Pseudomonas aeruginosa PAO1 by micro broth dilution or agar based method. The format is functional.
The test system of data set [9] is Staphylococcus aureus. The data set can be described thus: Antimicrobial activity against Staphylococcus aureus Smith by micro broth dilution or agar based method. The format is functional.
Data set [10] relates to Staphylococcus aureus. As to the kind of experiment: Antimicrobial activity against methicillin-resistant Staphylococcus aureus OIT971 by micro broth dilution or agar based method. The format is functional, organism-based.
For data set [11], the system named is Streptococcus pneumoniae. As to the kind of experiment: Antimicrobial activity against Streptococcus pneumoniae IID553 by micro broth dilution or agar based method. The format is functional.
For data set [12], the system named is Acinetobacter baumannii. As to the kind of experiment: Antimicrobial activity against Acinetobacter baumannii IID876 by micro broth dilution or agar based method. The format is functional.
Data set [13] in a line: Half life in Sprague-Dawley rat at 2 mg/kg, iv or 5 mg/kg, po. The format is ADME, organism-based. The settings on record: in vivo.
Data set [14] in a line: Plasma clearance in Sprague-Dawley rat at 2 mg/kg, iv or 5 mg/kg, po. The format is ADME, organism-based.
Data set [15] is described as follows: Oral bioavailability in C57BL/6 mouse at 5 mg/kg. The format is ADME, organism-based. The settings on record: in vivo.
Data set [16] deals with Mus musculus. The data set can be described thus: Dose normalized AUC in C57BL/6 mouse at 2 mg/kg, iv or 5 mg/kg, po. The note with it: in vivo. The format is ADME, organism-based.
The nature of data set [17]: Oral bioavailability in Sprague-Dawley rat at 5 mg/kg. The format is ADME, organism-based. The settings on record: in vivo.
A short description of data set [18]: Volume of distribution at steady state in Sprague-Dawley rat at 2 mg/kg, iv or 5 mg/kg, po. The format is ADME, organism-based. The note with it: in vivo, read-out: Vdss.
Data set [19] in a line: Half life in C57BL/6 mouse at 2 mg/kg, iv or 5 mg/kg, po. The note with it: in vivo. The format is ADME, organism-based.
For data set [20], the system named is Rattus norvegicus. The data set can be described thus: Dose normalized AUC in Sprague-Dawley rat at 2 mg/kg, iv or 5 mg/kg, po. The format is ADME, organism-based. The settings on record: in vivo.
A short description of data set [21]: Plasma clearance in C57BL/6 mouse at 2 mg/kg, iv or 5 mg/kg, po. The format is ADME, organism-based.
Data set [22] is described as follows: Volume of distribution at steady state in C57BL/6 mouse at 2 mg/kg, iv or 5 mg/kg, po. The note with it: in vivo, read-out: Vdss. The format is ADME, organism-based.

In brackets after ≈: the same amount, converted by molar mass. Activity calls are given as the source filed them.

Broadly, the ED50 is the dose at which the effect has come halfway, by size or by number of responders. Lower therefore signals greater potency. As a reminder, the MIC is the smallest concentration in the dilution series that meets the test's criterion for growth inhibition. The low end stands for inhibition by little substance, the high end for a need for much substance. The half-life is the time in which the quantity being followed falls by half. For orientation: bioavailability means dose-corrected exposure relative to a reference, in per cent. Higher therefore signals much systemic uptake.

`Cl.O=C1COc2ccc(CNC34CCC(CCc5c(F)cnc6ccc(OCCCCCO)nc56)(CC3)OC4)nc2N1`: the ED50 in [1] amounted to 43 mg/kg; in data set [2] it was 21 mg/kg.
The corresponding values for `Cl.O=C1COc2ccc(CNC34CCC(CCc5c(F)cnc6ccc(OCCO)nc56)(CC3)OC4)nc2N1` are more than 50 mg/kg and 13 mg/kg.
Take `COc1ccc2ncc(F)c(CCC34CCC(NCc5ccc6c(n5)NC(=O)CO6)(CC3)CO4)c2n1.Cl`: the ED50 in [1] came to 17 mg/kg; in data set [2] it was 5.5 mg/kg.
With `Cl.O=C1COc2ccc(CNC34CCC([C@@H](O)Cc5c(F)cnc6ccc(OCCCO)nc56)(CC3)OC4)nc2N1`, the ED50 was more than 50 mg/kg in [1] and 5.5 mg/kg in data set [2].
For the molecule `C[C@H]1COc2c(N3CCN(C)CC3)c(F)cc3c(=O)c(C(=O)O)cn1c23.C[C@H]1COc2c(N3CCN(C)CC3)c(F)cc3c(=O)c(C(=O)O)cn1c23.O` [LEVOFLOXACIN], the Ratio in data set [3] is on record as more than 64. Further, the MIC was 0.25 µg/mL in data set [4] and more than 16 µg/mL in [5].
In the case of `CN(C)C(=O)COc1ccc2ncc(F)c(CCC34CCC(NCc5ccc6c(n5)NC(=O)CO6)(CC3)CO4)c2n1`, the MIC in data set [6] worked out at 16 µg/mL (≈ 28.3 µM); in data set [7], 16 µg/mL (≈ 28.3 µM); in [8], 16 µg/mL (≈ 28.3 µM); in data set [9] it was 1 µg/mL (≈ 1.77 µM); in data set [11], 4 µg/mL (≈ 7.08 µM); in data set [12], 16 µg/mL (≈ 28.3 µM). In data set [3], the Ratio is less than 4. The “growth inhibition (GI)” value in [10] is “Active”.
Consider `COc1ccc2ncc(F)c(C[C@H](O)C34CCC(NCc5ccc6c(n5)NC(=O)CO6)(CC3)CO4)c2n1.Cl`, for which the ED50 in [1] was 2.2 mg/kg; in data set [2], 2.5 mg/kg.
For `Cl.NCCCOc1ccc2ncc(F)c(CCC34CCC(NCc5ccc6c(n5)NC(=O)CO6)(CC3)CO4)c2n1` the same measures were more than 50 mg/kg and 15 mg/kg.
As to `CNC(=O)COc1ccc2ncc(F)c(CCC34CCC(NCc5ccc6c(n5)NC(=O)CO6)(CC3)CO4)c2n1`, the MIC worked out at 16 µg/mL (≈ 29.1 µM) in data set [6]; 4 µg/mL (≈ 7.26 µM) in [7]; 16 µg/mL (≈ 29.1 µM) in [8]; 0.125 µg/mL (≈ 0.227 µM) in [9]; 0.5 µg/mL (≈ 0.908 µM) in data set [11]; 4 µg/mL (≈ 7.26 µM) in data set [12]. Moreover, the Ratio in data set [3] is less than 4. The “growth inhibition (GI)” value in data set [10] was “Active”.
Take `CC(C)COc1ccc2ncc(F)c(CCC34CCC(NCc5ccc6c(n5)NC(=O)CO6)(CC3)CO4)c2n1`: the MIC came out at 16 µg/mL (≈ 29.9 µM) in data set [6]; 4 µg/mL (≈ 7.47 µM) in data set [7]; 16 µg/mL (≈ 29.9 µM) in [8]; 0.063 µg/mL (≈ 0.118 µM) in data set [9]; 0.25 µg/mL (≈ 0.467 µM) in [11]; 2 µg/mL (≈ 3.73 µM) in data set [12]. Further, in data set [3], the Ratio is on record as less than 4. Besides, the “growth inhibition (GI)” value in [10] is “Active”.
Take `Cl.O=C1COc2ccc(CNC34CCC(CCc5c(F)cnc6ccc(OCCCO)nc56)(CC3)OC4)nc2N1`: the figures for the ED50 in [1] and in [2] were 15 mg/kg and 5.9 mg/kg, respectively. Also, the half-life in [13] is 0.58 h; in data set [19], 1.5 h. Besides, the clearance in data set [14] was determined as 33.2 mL/min/kg; in data set [21] it was 38.7 mL/min/kg. Besides, the results for the bioavailability in data set [15] and in data set [17] were 16% and 49%, respectively. Besides, the AUC/dose in data set [16] turned out to be 1.6 µM·h/mg/kg; in [20], 1.9 µM·h/mg/kg. Moreover, the Vd in data set [18] was found to be 0.84 L/kg; in data set [22], 1.46 L/kg.
In the case of `COCCOc1ccc2ncc(F)c(CCC34CCC(NCc5ccc6c(n5)NC(=O)CO6)(CC3)CO4)c2n1.Cl`, the ED50 in [2] was 7.2 mg/kg.
For the molecule `C=CCOc1ccc2ncc(F)c(CCC34CCC(NCc5ccc6c(n5)NC(=O)CO6)(CC3)CO4)c2n1`, the MIC in data set [6] was found to be 8 µg/mL (≈ 15.4 µM); in data set [7], 8 µg/mL (≈ 15.4 µM); in data set [8], 16 µg/mL (≈ 30.8 µM); in data set [9], 0.063 µg/mL (≈ 0.121 µM); in data set [11] it was 1 µg/mL (≈ 1.92 µM); in [12], 2 µg/mL (≈ 3.85 µM). The Ratio in [3] is recorded as less than 4. Moreover, the “growth inhibition (GI)” value in data set [10] is “Active”.

The values above are taken from ChEMBL document CHEMBL3603744, “Structure activity relationship of C-2 ether substituted 1,5-naphthyridine analogs of oxabicyclooctane-linked novel bacterial topoisomerase inhibitors as broad-spectrum antibacterial agents (Part-5)” (Bioorg Med Chem Lett, 2015).
